Assay results published in patent US12201613B2 (priority 2020, dated 2025).

Legend:
[1] = tested on: SARS-CoV-2 (SARS-CoV-2/human/TWN/CGMH-CGU-01/2020); type: cell-based
[2] = molecular target: T1, SARS-CoV-2 S-protein-ACE2 binding (Homo sapiens, UniProt Q9BYF1, K631R); test: EIS-based biosensing platform (ACE2-Pd-NTFE): modulation of S-protein-ACE2 binding; design: species or system SARS-CoV-2; human; details: for suppression of S-protein-ACE2 interaction / maximum binding efficacy / ECmax S-protein (S-protein-ACE2 interaction at maximum S-protein concentration): 4 μg/mL ACEi; for suppression of S-protein-ACE2 interaction / maximum binding efficacy: at maximum S-protein concentration; for ECmax S-protein (S-protein-ACE2 interaction at maximum S-protein concentration): baseline 99.5%±11.0% (104.2%±4.8% for ramiprilat); for modulation effect on the S-protein-ACE2 binding: dose-dependent, 0.1 to 4 μg/mL
T1 construct: made in house

[3] = Binding selectivity of S-protein to plain Pd-NTF electrode (EIS); details: presence of peptide analogue
[4] = tested on: lysozyme-coated Pd-NTF electrodes; test: Binding selectivity of S-protein to lysozyme-coated Pd-NTF electrode (EIS); details: presence of peptide analogue
Description: (iii) lysozyme-coated Pd-electrode in the absence of peptide analogues; or […]

Row | Compound | E gene RNA in the media increased by [1] | effect on S-protein-ACE2 binding at highest dose ([2]; 4 μg/mL) | suppression of S-protein-ACE2 interaction / maximum binding efficacy [2] | ECmax S-protein (S-protein-ACE2 interaction at maximum S-protein concentration) [2] | modulation effect on the S-protein-ACE2 binding [2] | E gene RNA copies in the culture media reduced by [1] | effect on binding patterns of S-protein to the bare Pd-NTF electrode [3] | effect on binding patterns of S-protein to the lysozyme-coated Pd-NTF electrode [4]
1 | C[C@H](N[C@@H](CCc1ccccc1)C(=O)O)C(=O)N1CCC[C@H]1C(=O)O [enalaprilat] | 44.4% |  |  |  |  |  |  | 
2 | C[C@H](N[C@@H](CCc1ccccc1)C(=O)O)C(=O)N1[C@H](C(=O)O)C[C@@H]2CCC[C@@H]21 [ramiprilat] |  | Near full inhibition | 72% | 27.6±7.5% | antagonism effect is significantly enhanced | 36.4% |  | 
3 | CCC[C@H](N[C@@H](C)C(=O)N1[C@H](C(=O)O)C[C@@H]2CCCC[C@@H]21)C(=O)O [perindoprilat] |  |  | 67% | 33.0±3.7% | antagonism effect is significantly enhanced | ~20.1% | did not change the binding patterns | did not change the binding patterns
4 | C[C@H](CS)C(=O)N1CCC[C@H]1C(=O)O [captopril] | 34.5% |  |  |  |  |  |  | 
5 | CCOC(=O)[C@H](CCc1ccccc1)N[C@@H](C)C(=O)N1CCC[C@H]1C(=O)O [enalapril] | 93.7% |  |  |  |  |  |  | 
6 | CCOC(=O)[C@H](CCc1ccccc1)N[C@@H](C)C(=O)N1[C@H](C(=O)O)C[C@@H]2CCC[C@@H]21 [ramipril] |  |  | approximately 42% | 57.1±11.4% | dose-dependent and non-competitive inhibition | 39.3% |  | 
7 | NCCCC[C@H](N[C@@H](CCc1ccccc1)C(=O)O)C(=O)N1CCC[C@H]1C(=O)O [lisinopril] | 54.2% |  |  |  |  |  |  | did not change the binding patterns
8 | CCC[C@H](N[C@@H](C)C(=O)N1[C@H](C(=O)O)C[C@@H]2CCCC[C@@H]21)C(=O)OCC [perindopril] |  |  | approximately 48% | 51.9±5.3% | dose-dependent and non-competitive inhibition | approximately 18.8% |  | 
